# Source: patent publication US10017823B2, “Analytical method for increasing susceptibility of molecular targeted therapy in hepatocellular carcinoma” (CBS BIOSCIENCE, CO., LTD, priority 2013, dated 2018)
# Columns and labels:
# hepatocellular carcinoma = test: Susceptibility assay in sorafenib-administered patients (tumor response according to RECIST); assay type: in vivo
# Text: The term “patient having susceptibility to sorafenib treatment” refers to a hepatocellular carcinoma patient showing response according to the sorafenib administration (i.e., tumor response). […] N Engl J Med 359: 378-390.
# In the samples derived from 23 sorafenib-administered patients, we analyzed the relationship between the 7 marker gene expression patterns and the sorafenib efficacies. From the hierarchical clustering analysis results of FIG. 5, clustering without primary classification according to BCLC stages was performed according to expression ratio (tumor/non-tumor) of the target molecules; and then the 23 sorafenib-administered patients (i to xxiii) were correspondingly arranged thereto (FIG. 6). […] N Engl J Med 359: 378-390.
# advanced HCC = settings: HCC patients, stated as very low; cited from earlier work
smiles,measurement,setting,value
CNC(=O)c1cc(Oc2ccc(NC(=O)Nc3ccc(Cl)c(C(F)(F)F)c3)cc2)ccn1 [sorafenib],tumor response according to RECIST,"hepatocellular carcinoma; patients viii, x, xi of the 23 sorafenib-administered HCC patients",partial response
same,susceptibility to the sorafenib treatment (RECIST tumor response),hepatocellular carcinoma; remaining 20 of the 23 sorafenib-administered HCC patients,not susceptible
same,response rate of sorafenib,advanced HCC,about 3%
